According to paper PMC5995184, “Potent anti-leukemic activity of a specific cyclin-dependent kinase 9 inhibitor in mouse models of chronic lymphocytic leukemia” (Oncotarget, 2018):

System: TCL1 CLL cells (CD5+CD19+), T and B lymphocytes
Test: TCL1 transgenic CLL mice, oral LDC526, longitudinal blood and final spleen analysis
Format: in vivo, mouse
Source text: Another widely used preclinical CLL model are TCL1 transgenic mice. The TCL1 transgenics represent a constitutive CLL model not involving the adoptive transfer of cells. This model mirrors the natural course of human IgVH-unmutated CLL including its disease progression. In addition, this model has also been widely used by others to test novel therapeutic molecules. […] Consecutive blood sampling allowed us to carry out a longitudinal study in individual TCL1 and control mice. For this, we chose a cohort of TCL1 and littermate control mice, which were 9-12 months old (Figure 5A). We chose TCL1 transgenics with high peripheral CLL cell (CD19+CD5+) counts (14.6±7.4/nl, mean±SEM). Given the presumably high leukemic burden in these aged TCL1 mice and the reduced general condition of some NSG mice receiving 75 mg/kg for 5 days we decided to dose TCL1 mice with 50 mg/kg daily for two consecutive days (Figure 5A). As the experiment was longitudinally designed and there was no effect expected of administering carrier to wild-type control mice we omitted this control group and established three experimental groups (Figure 5A). In order to minimize stress by collecting blood specimens we sampled blood three times, 8 days apart (days -5, +3 and +11; Figure 5A). Compared to blood smears prepared before commencing LDC526 treatment a marked decrease of peripheral blood leukocytes and CLL cells was observed two days post the last LDC526 administration to TCL1 transgenic mice (Figure 5B). In contrast to the carrier control treated TCL1 mice, white blood cell counts (WBC) dropped in LDC526-treated wild-type and TCL1 mice (Figure 5C). In comparison to wild-type control mice, where WBC dropped to 34% of baseline values, the WBC decrease in TCL1 mice was more dramatic dropping to 8% of baseline values (Figure 5D).
All mice were bred and housed at the University Hospital Essen animal care facility. TCL1 mice were back-crossed more than 6 generations into the C57BL/6 background and were genotyped as previously described. Age-matched TCL1 wild-type littermates served as controls. Peripheral blood counts were determined with the VetABC analyzer (scil, Viernheim, Germany). Blood smears were Wright-Giemsa stained. For the human CLL xenograft experiments eight to 14-week-old NOD.Cg-Prkdc^scid Il2rg^tm1Wjl/SzJ (NOD/scid/γc^null; NSG) mice were sublethally irradiated (3.25 Gy) 24 hours before transplantation. Freshly isolated 1.0 x 10^8 PBMC suspended in 0.2 ml of RPMI were intravenously transplanted as previously described. For oral administration, LDC526 was diluted in polyethelene glycol (PEG Mn 400, Sigma-Aldrich) and administerd by gavage. Animal experiments were performed in accordance with institutional guidelines approved by the Animal Care Committee of the University Hospital Essen.
LDC526 [(3-((4-(4-fluoro-2-methoxyphenyl)-1,3,5-triazin-2-yl)amino)phenyl)methane-sulfonamide, molecular weight 389,41 g/mol, Figure 1A] was provided as powder (LDC526 synthesis, supplementary methods). For oral gavage administration LDC526 was diluted in polyethelene glycol (PEG Mn 400, Sigma-Aldrich, Munich, Germany) followed by sonication for 3 x 5 minutes with intermediate mixing.
Apoptosis and cell death were determined by using Annexin V (BD Biosciences, Heidelberg, Germany) and 4′,6-Diamidin-2-phenylindol (DAPI, Sigma-Aldrich) staining. Erythrocytes of murine peripheral blood samples were lysed with NH4Cl hypotonic solution. Single cell suspensions of murine spleens were prepared as previously described. Murine cells were stained with antibodies directed against murine CD3 (clone 145-2C11), CD5 (53-7.3) and CD19 (1D3), respectively. For the detection of human cells in NSG spleens antibodies against human CD3 (clone SK7), CD4 (SK3), CD5 (L17F12), CD8 (SK1), CD19 (J3-119 or SJ25C1) and CD45 (2D1) were used (purchased from BD Bioscience, Biolegend and Beckman Coulter). […]

SMILES: COc1cc(F)ccc1-c1ncnc(Nc2cccc(CS(N)(=O)=O)c2)n1 [LDC526, (3-((4-(4-fluoro-2-methoxyphenyl)-1,3,5-triazin-2-yl)amino)phenyl)methane-sulfonamide]
- decrease of peripheral blood CLL counts of individual TCL1 mice (50 mg/kg for two days): at least 8 fold
- decrease of TCL1 blood T cells (50 mg/kg for two days, day +3): 6 fold
- decrease of mean TCL1 blood CLL numbers compared to baseline (50 mg/kg for two days, day +3): 16 fold
- hemoglobin counts (LDC526-treated mice, longitudinal): did not change significantly
- increase of peripheral blood CLL numbers on day +11 compared to day +3 (TCL1 mice): 29%
- mean platelet concentrations, percent of baseline levels (TCL1 mice after LDC526 treatment): ≥ 50%
- WBC, percent of baseline values (TCL1 mice, 50 mg/kg daily for two days, day +3): 8%
- drop of mean WBC (TCL1 mice, 50 mg/kg for two days): 12 fold
- non-malignant B cell numbers, percent of baseline values (TCL1 mice, peripheral blood): 1.4%
- peripheral blood TCL1 CLL cells, percent of baseline levels (day +3): 6.4%
- splenic weights versus carrier control TCL1 mice (day +11): significantly lower
